Measurements as given in patent publication US6737438B2, “Substituted 1,2,4-trioxanes useful as antimalarial agents and a process for the preparation thereof” (Council of Scientific and Industrial Research, priority 2002, dated 2004).
Read-outs that look alike come from different tables or passages of the source.

What was measured:
[1] = tested on: multidrug resistant strain of Plasmodium yoelii Nigeriensis; assay: Antimalarial activity against multidrug resistant P. yoelii in swiss mice; format: in vivo; conditions: for % Suppression on Day 4 / inhibition in vivo at 96 mg/kg: 4 consecutive days (day 0-3), parasitaemia vs vehicle control; for Cured/treated: observed till day 28; for inhibition in vivo at 96 mg/kg / responders at 96 mg/kg: Plasmodium yoelii; for inhibition in vivo at 96 mg/kg: 96 h, read-out: % Suppression on Day 4; for responders at 96 mg/kg: 672 h, observed till day 28, read-out: Cured/treated (converted)

`C(=CC1COC(c2ccccc2)OO1)c1ccc(-c2ccccc2)cc1` (centres unmarked) showed a melting point of 92 to 95 °C.
`Clc1ccc(-c2ccc(C=CC3COC4(CCCC4)OO3)cc2)cc1` (centres unmarked) showed a melting point of 102 to 104 °C.
For `Clc1ccc(-c2ccc(C=CC3COC4(CCCCC4)OO3)cc2)cc1` (centres unmarked), the melting point was 96 to 98 °C.
With `C=C(c1ccc(-c2ccc(Br)cc2)cc1)C1COC2(CCC(C(C)(C)CC)CC2)OO1` (centres unmarked) [Trioxane 7fd] the “% Suppression on Day 4” value ([1]; i.m., 48 mg/kg) was 51.09%, the Cured/treated ([1]; i.m., 48 mg/kg) was 0/5 and the “% Suppression on Day 4” value ([1]; oral, 96 mg/kg) was 88.39%. The Cured/treated ([1]; oral, 96 mg/kg) was 0/5.
Compound `Brc1ccc(-c2ccc(C=CC3COC4(CCCC4)OO3)cc2)cc1` (centres unmarked) [Trioxane 7fe, 8-[(4′-bromo-[1,1′-biphenyl]-4yl)vinyl]-6,7,10-trioxaspiro (4,5) decane] has an inhibition in vivo at 96 mg/kg ([1]; oral, 96 mg/kg) of 100%, a responders at 96 mg/kg ([1]; oral, 96 mg/kg) of 60% and an inhibition in vivo at 96 mg/kg ([1]; im, i.m., 96 mg/kg) of 89.4%. For the same compound, the responders at 96 mg/kg ([1]; im, i.m., 96 mg/kg) was 0%.
For `C=C(c1ccc(-c2ccc(Br)cc2)cc1)C1COC2(CCC(c3ccccc3)CC2)OO1` (centres unmarked) [Trioxane 7ff], the “% Suppression on Day 4” value ([1]; i.m., 96 mg/kg) was 46.1%, the Cured/treated ([1]; i.m., 96 mg/kg) was 0/5 and the “% Suppression on Day 4” value ([1]; oral, 96 mg/kg) was 100%. For the same compound, the Cured/treated ([1]; oral, 96 mg/kg) was 2/5.
In the case of `C=C(c1ccc(C2CCCC2)cc1)C1COC2(CC3CCC2C3)OO1` (centres unmarked) [Trioxane 8a], the “% Suppression on Day 4” value ([1]; i.m., 96 mg/kg) is reported as 81.23%, the Cured/treated ([1]; i.m., 96 mg/kg) is reported as 0/5 and the “% Suppression on Day 4” value ([1]; oral, 96 mg/kg) is reported as 100%. For the same compound, the Cured/treated ([1]; oral, 96 mg/kg) was 5/5.
In the case of `C=C(c1ccc(C2CCCCC2)cc1)C1COC2(CC3CCC2C3)OO1` (centres unmarked) [Trioxane 8b], the “% Suppression on Day 4” value ([1]; i.m., 96 mg/kg) is reported as 100%, the Cured/treated ([1]; i.m., 96 mg/kg) is reported as 3/5 and the “% Suppression on Day 4” value ([1]; oral, 48 mg/kg) is reported as 100%. For the same compound, the Cured/treated ([1]; oral, 48 mg/kg) was 6/6.
For `C=C(c1ccc(C2CCCCCC2)cc1)C1COC2(CC3CCC2C3)OO1` (centres unmarked) [Trioxane 8c], the “% Suppression on Day 4” value ([1]; i.m., 96 mg/kg) was 43.55%, the Cured/treated ([1]; i.m., 96 mg/kg) was 0/5 and the “% Suppression on Day 4” value ([1]; oral, 96 mg/kg) was 100%. For the same compound, the Cured/treated ([1]; oral, 96 mg/kg) was 3/5.
With `C=C(c1ccc(-c2ccccc2)cc1)C1COC2(CC3CCC2C3)OO1` (centres unmarked) [Trioxane 8e] the “% Suppression on Day 4” value ([1]; i.m., 96 mg/kg) was 100%, the Cured/treated ([1]; i.m., 96 mg/kg) was 1/4 and the “% Suppression on Day 4” value ([1]; oral, 96 mg/kg) was 100%. For the same compound, the Cured/treated ([1]; oral, 96 mg/kg) was 4/4.
For `C=C(c1ccc(-c2ccc(Br)cc2)cc1)C1COC2(CC3CCC2C3)OO1` (centres unmarked) [Trioxane 8f], the “% Suppression on Day 4” value ([1]; i.m., 96 mg/kg) was 100%, the Cured/treated ([1]; i.m., 96 mg/kg) was 0/5 and the “% Suppression on Day 4” value ([1]; oral, 96 mg/kg) was 100%. For the same compound, the Cured/treated ([1]; oral, 96 mg/kg) was 5/5.
For `C=C(c1ccc(C2CCCC2)cc1)C1COC2(OO1)C1CC3CC(C1)CC2C3` (centres unmarked) [Trioxane 9a], the “% Suppression on Day 4” value ([1]; i.m., 96 mg/kg) was 81.23%, the Cured/treated ([1]; i.m., 96 mg/kg) was 0/5 and the “% Suppression on Day 4” value ([1]; oral, 96 mg/kg) was 100%. The Cured/treated ([1]; oral, 96 mg/kg) was 5/5.
With `C=C(c1ccc(C2CCCCC2)cc1)C1COC2(OO1)C1CC3CC(C1)CC2C3` (centres unmarked) [Trioxane 9b] the “% Suppression on Day 4” value ([1]; i.m., 96 mg/kg) was 82.16%, the Cured/treated ([1]; i.m., 96 mg/kg) was 0/5 and the “% Suppression on Day 4” value ([1]; oral, 96 mg/kg) was 100%. The Cured/treated ([1]; oral, 96 mg/kg) was 5/5.
With `C=C(c1ccc(C2CCCCCC2)cc1)C1COC2(OO1)C1CC3CC(C1)CC2C3` (centres unmarked) [Trioxane 9c] the “% Suppression on Day 4” value ([1]; i.m., 96 mg/kg) was 74.57%, the Cured/treated ([1]; i.m., 96 mg/kg) was 0/5 and the “% Suppression on Day 4” value ([1]; oral, 96 mg/kg) was 100%. The Cured/treated ([1]; oral, 96 mg/kg) was 5/5.
With `C=C(c1ccc(C2CCCCCCC2)cc1)C1COC2(OO1)C1CC3CC(C1)CC2C3` (centres unmarked) [Trioxane 9d] the “% Suppression on Day 4” value ([1]; i.m., 96 mg/kg) was 60.12%, the Cured/treated ([1]; i.m., 96 mg/kg) was 0/5 and the “% Suppression on Day 4” value ([1]; oral, 96 mg/kg) was 100%. The Cured/treated ([1]; oral, 96 mg/kg) was 5/5.
For `C=C(c1ccc(-c2ccccc2)cc1)C1COC2(OO1)C1CC3CC(C1)CC2C3` (centres unmarked) [Trioxane 9e], the “% Suppression on Day 4” value ([1]; i.m., 96 mg/kg) was 100%, the Cured/treated ([1]; i.m., 96 mg/kg) was 0/6 and the “% Suppression on Day 4” value ([1]; oral, 96 mg/kg) was 100%. For the same compound, the Cured/treated ([1]; oral, 96 mg/kg) was 6/6.
In the case of `C=C(c1ccc(-c2ccc(Br)cc2)cc1)C1COC2(OO1)C1CC3CC(C1)CC2C3` (centres unmarked) [Trioxane 9f], the “% Suppression on Day 4” value ([1]; i.m., 96 mg/kg) is reported as 92.4%, the Cured/treated ([1]; i.m., 96 mg/kg) is reported as 2/5 and the “% Suppression on Day 4” value ([1]; oral, 48 mg/kg) is reported as 100%. For the same compound, the Cured/treated ([1]; oral, 48 mg/kg) was 5/5.
With `C=C(c1ccc(-c2ccc(Cl)cc2)cc1)C1COC2(OO1)C1CC3CC(C1)CC2C3` (centres unmarked) [Trioxane 9g] the “% Suppression on Day 4” value ([1]; i.m., 96 mg/kg) was 100%, the “% Suppression on Day 4” value ([1]; oral, 96 mg/kg) was 100% and the Cured/treated ([1]; oral, 96 mg/kg) was 3/5.
